Series [1] has as its system P. berghei blood-stage parasites. In words: P. berghei blood-stage isobolograms. Format: cell-based, Plasmodium berghei. Particulars: LUM in combination with DHA (positive control). On the procedure:
Antimalarial activity and IC50 values of CB-61 and five antimalarial drugs were assessed using the previously described in vitro drug luminescence assay ([14], [68]). Blood-stage isobolograms were performed to confirm synergistic combinations between CB-61 and the five drugs, following established protocols ([69]). Thirty-two-fold IC50 concentrations were used to obtain six concentration ranges for each drug combination, and then they were serially diluted five times ([67]). IC50 scores for each drug alone were determined, and FIC50 values (FIC50 = […]) were calculated and plotted ([70], [71]). The Promega Luciferase Assay System Kit was used to measure mature schizonts’ RLUs, and Giemsa blood smears confirmed the presence of schizonts ([14]).

Series [2] has as its system primary primate hepatocytes. Briefly: hepatocyte toxicity in the P. cynomolgi liver-stage assay. It is filed as cell-based. On the procedure:
(§1) Primary primate hepatocytes were seeded in 384-well plates and used within 2–4 days ([56]). P. cynomolgi B strain parasites were inoculated and developed into hypnozoites and schizonts. CB compounds were tested in 8-point, threefold serial dilutions (100 µM to […]) for both prophylactic (4 days starting with sporozoite addition) and radical cure (4 days starting day 4 post-inoculation) modalities ([56][–][60]). The Operetta CLS imaging system and Harmony Software 4.9 (Perkin Elmer, Waltham, MA, USA) analyzed the plates, and the percentage of inhibition (PI) was calculated in Python using equation (1), where parasitic quantities (hypnozoite and schizont counts) were normalized to the negative control ([57]). Each plate included negative (DMSO) and positive (KDU691, maduramicin, tafenoquine) controls ([58]). IC50 values were determined using an 8-point, threefold dilution format and a Python-adapted grid algorithm for fitting PI to a four-parameter logistic function ([61]).

A short description of the next series: in vitro. The following applies: human, HepG2 cells.
The test system of series [3] is P. cynomolgi hypnozoites and hepatic schizonts. Briefly: P. cynomolgi liver-stage inhibition assay. Format: cell-based, Plasmodium cynomolgi. Particulars: Plasmodium cynomolgi, prophylactic drug treatment mode. As for the experimental part:
as §1
PI = 100 ∗(1−(xy/Meanneg))

Series [4] relates to P. berghei ookinete development (Ookluc parasites). In words: P. berghei ookinete luciferase inhibition assay. It is filed as cell-based, Plasmodium berghei. The following applies: dose–response 2.5–75 µM. As for the experimental part:
Mice were pretreated with phenylhydrazine [6 mg/mL, intraperitoneal injection (IP)] 3 days before intravenous injection (IV) infection with P. berghei Ookluc parasites ([19], [62]). Once parasitemia exceeded 15%, the mice received PYR (1 mg/mL, IP) ([19], [62]). Twenty-four hours after PYR treatment, infected mice were assessed for at least 10 exflagellations before blood was collected by heart puncture ([19], [62]). Infected blood (1:20 dilution) was incubated with 8-point serial dilutions (2.5–75 µM) of CB compounds for 24 hours at 19°C with gentle shaking ([62], [64]). Relative luminescence units (RLU) of mature ookinetes were measured using the Promega Nano-Glo Luciferase Assay System Kit and a SpectraMax M3 Microplate Reader (Molecular Devices, San Jose, CA, USA) after 3 minutes. Giemsa blood smears confirmed ookinetes.

Series [5] addresses T1, recombinant P. falciparum GST (Plasmodium falciparum, UniProt Q8ILQ7).
T1 construct: The open reading frames encoding PfGST, PbGST, and hGST were gene-synthesized; TEV cleavage site (C); Avitag (C); purchased InterRayBio, LLC; host or cells: E. coli BL21 (DE3)
T1 sequence (Q8ILQ7 1-211): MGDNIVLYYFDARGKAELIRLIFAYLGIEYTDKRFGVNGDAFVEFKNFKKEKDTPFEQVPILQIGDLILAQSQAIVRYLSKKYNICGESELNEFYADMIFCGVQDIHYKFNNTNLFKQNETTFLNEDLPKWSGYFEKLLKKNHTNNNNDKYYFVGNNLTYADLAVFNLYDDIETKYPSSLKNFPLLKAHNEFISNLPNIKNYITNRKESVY
Briefly: GST inhibition assay (CDNB). Format: biochemical. As for the experimental part: (§2) Enzymatic activities of recombinant GSTs were determined spectrophotometrically using the chromogenic substrate 1-chloro-2,4-dinitrobenzene (CDNB). Recombinant GST (0.35 mg/mL) was mixed with 1 mM CDNB in 100 mM HEPES. Stock solutions (10 mM) of the CB compounds and hemin were prepared in 100% dimethyl sulfoxide (DMSO) and then diluted at 0.5% DMSO ([14]). Each inhibitor has six concentrations ranging from 1 to 50 µM. The reaction was initiated with 1 mM glutathione (GSH) after 15 minutes. Absorbance change at 340 nm was measured for 1 hour. The slope was converted to micromole per minute using Beer’s equation and the extinction coefficient for the product S-(2,4-dinitrophenyl)glutathione (ε340 nm = 9.6 mM^–1 cm^–1) ([14]). The assay was validated using human placenta GST (#G8642) as a positive control.

The target in another series is T2, human GST (Homo sapiens, UniProt P08263).
T2 construct: The open reading frames encoding PfGST, PbGST, and hGST were gene-synthesized; TEV cleavage site (C); Avitag (C); purchased InterRayBio, LLC; host or cells: E. coli BL21 (DE3)
T2 sequence (P08263 1-222): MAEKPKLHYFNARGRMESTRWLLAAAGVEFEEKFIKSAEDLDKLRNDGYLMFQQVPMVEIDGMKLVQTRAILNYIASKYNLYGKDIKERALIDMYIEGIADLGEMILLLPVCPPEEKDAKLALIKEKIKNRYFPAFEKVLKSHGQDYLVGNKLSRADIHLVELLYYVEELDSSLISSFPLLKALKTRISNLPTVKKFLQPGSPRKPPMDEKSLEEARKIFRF
Briefly: GST inhibition assay (CDNB). It is filed as biochemical. On the procedure:
as §2

The test system of series [6] is recombinant P. berghei GST. In words: GST inhibition assay (CDNB). It is filed as biochemical, Plasmodium berghei. As for the experimental part:
as §2

The next series relates to P. falciparum D6. Briefly: Malaria SYBR Green I-Based Fluorescence (MSF) assay, blood stages. The following applies: Plasmodium falciparum, D6; blood stages, 72 hours, drug-sensitive strain; read-out: IC50 (µM) (±SD) for strain: D6. It is filed as cell-based. As for the experimental part: (§3) MSF assays were performed in vitro with four P. falciparum strains: D6 (drug sensitive), TM91-C235 (multidrug resistant), W2 (CQ resistant), and C2B (multidrug resistant against ATQ). Parasite strains were kept continuously in long-term cultures as described ([22]). Pre-dosed 384-well plates containing […] serial dilutions of CB compounds (0.0098–20 µM) were prepared using the Tecan Freedom Evo liquid handling system (Tecan USA, Inc., Durham, NC, USA) and were stored at 4°C. A CQ control plate (2,000 ng/mL) was included in each run. Based on modifications of previous methods ([17], [55]), late-ring or early-trophozoite stages were cultured in pre-dosed plates with 0.3% parasitemia and 2% hematocrit. Cultures were incubated for 72 hours at 37°C in a controlled atmosphere of 5% CO2, 5% O2, and 90% N2. Lysis buffer, consisting of 20 mM Tris HCl, 5 mM EDTA, 1.6% Triton X, 0.016% saponin, and SYBR Green I dye at a 20X concentration (Invitrogen #S-7567), was added to the plates for a final 10X SYBR Green concentration. Plates containing cell culture media and lysis buffer were incubated in the dark at 25°C for 24 hours, and the relative fluorescence units (RFU) were measured using the Tecan Genios Plus (Tecan USA, Inc.).

The test system of the next series is P. falciparum C2B. The description is as above. It is filed as cell-based. The following applies: Plasmodium falciparum, 72 h, read-out: IC50 (µM) (±SD) for strain: C2B. As for the experimental part: as §3
A further series concerns P. falciparum W2. The series is described as above. It is filed as cell-based. The following applies: Plasmodium falciparum, W2; blood stages, 72 hours, CQ resistant strain; read-out: IC50 (µM) (±SD) for strain: W2. As for the experimental part:
as §3

The test system of another series is P. falciparum TM91c235. The series is described as above. Particulars: Plasmodium falciparum; blood stages, 72 hours, multidrug resistant strain; read-out: IC50 (µM) (±SD) for strain: TM91c235. It is filed as cell-based. On the procedure: as §3
Series [7] deals with P. berghei male gamete activation. Briefly: Exflagellation assay (male gametocyte activation). It is filed as cell-based, Plasmodium berghei. Particulars: 125 nM, positive control. On the procedure: Exflagellation assays were performed to assess the effect of CB compounds on P. berghei male gametocyte activation ([19]). Tail blood from PYR-administered mice was mixed with DMSO, aphidicolin (125 nM), or CB compounds (10 µM) in complete ookinete medium and heparin (30 µg/mL) ([19]). After a 15-minute incubation, the sample was diluted in complete ookinete medium with 10 µM inhibitor and adjusted to a final blood concentration of 1:20. Exflagellations were quantified by counting all events in the middle squares of a hemocytometer. The effect of CB compounds on macrogamete formation was analyzed by flow cytometry using the anti-Pbs21 antibody ([65]). Following PYR administration, infected blood for cardiac puncture was cultured with CB compounds (10 µM) for 2 hours to stimulate gametocyte activation ([66]). Aliquots were then incubated with anti-Pbs21 antibody (1:500) for 1 hour, followed by anti-mouse IgG conjugated Alexa Fluor 594 (1:1,000) for another hour ([65]). Samples were centrifuged (3,000 × g for 3 minutes), pellets were resuspended in phosphate-buffered saline (PBS) and analyzed by flow cytometry (FACSCelesta, FACS Diva Software, BD Biosciences, San Jose, CA, USA) with 1 million events counted per experiment ([66]).

The mark [8] stands for this setting: recombinant GST 0.35 mg/mL, 1–50 µM.

pIC50: −log10 of the molar value. Where two headings read alike, the source gives them in different places.

Data on four molecules can be found in publication PMC11620517, “Novel hydrazone compounds with broad-spectrum antiplasmodial activity and synergistic interactions with antimalarial drugs” (Antimicrobial Agents and Chemotherapy, 2024).

Procedure for in vitro: HepG2 cell viability was assessed using the Cell Proliferation kit with trypan blue exclusion. […] After incubation, a 1.5-mg/mL Cell Proliferation kit solution diluted in complete MEM medium was added to each well, followed by 1-hour dark incubation at 25°C. After aspiration of media and inhibitors, the plates were dried in a hood for 15 minutes, and acidified isopropyl alcohol was added to dissolve formazan dye crystals. The plates were then rotated for 15–30 minutes, and absorbance was determined using a Perkin Elmer Ensight plate reader.

Consider `CCCCN(CCCC)CC(O)c1cc(Cl)cc2c1-c1ccc(Cl)cc1/C2=C/c1ccc(Cl)cc1` (stereo not drawn) [LUM, lumefantrine, reference compound], for which the “Mean ΣFIC50” value in series [1] was 0.74.
By IC50 is commonly meant the point on the concentration scale where inhibition reaches its midpoint. The term pIC50 denotes the negative decadic logarithm of the IC50, by convention in mol/L. Consider `O=C(Nc1cc(Cl)ccc1O)c1cc2nc(-c3ccccc3)cc(-c3ccccc3)n2n1` [CB-59], for which the Toxicity in [2] is over 10 µM. In the series “in vitro”, the IC50 at 48 h is over 20 µM. In addition, the pIC50 in series [3] (read-out: Hypnozoite IC50), in [3] (read-out: Schizont IC50) and in series [3] (read-out: Total parasite IC50) was under 5.00 each time. In addition, in [4], the “activity in ookinete formation” value is on record as “no activity”. Besides, the GST inhibition entry (in series [5] (6-point 1–50 µM); at human GST (6-point 1–50 µM); in series [6] (6-point 1–50 µM)) was “did not inhibit” throughout. In addition, the IC50 is 1.73 µM with P. falciparum D6, 2.91 µM with P. falciparum C2B, 0.69 µM in the series on P. falciparum W2 and 2.96 µM in the series with P. falciparum TM91c235.
Regarding Hemin [reference compound], the figures for the pIC50 (in series [5] (setting [8]); at human GST (setting [8]); in series [6] (setting [8])) were 5.80, over 6.00 and 4.79, respectively.
Take `C[C@@]1(CO)[C@H](O)CC[C@@]2(C)[C@H]1CC[C@H]1C[C@@H]3C[C@@]12CC[C@]3(O)CO` [aphidicolin]: the “number of exflagellation events” value in [7] is under 50%.
